Laboratory results reported in US20240124422A1, “MUTANT PI3K-ALPHA INHIBITORS AND THEIR USE AS PHARMACEUTICALS” (Prelude Therapeutics Incorporated, priority 2022, published 2024).

Experiments:
[1] = system: phosphorylation of AKT on Ser473 as a readout of the PI3K pathway in T-47D (heterozygous PIK3CA H1047R) cells; test: PI3K pathway activation assay, pAKT Ser473 HTRF, T-47D cells; type: cell-based; settings: Homo sapiens, T47D, 2 h, two hours of treatment
Method in brief: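 pAKT Ser473 measured by HTRF in SKBR3 (PIK3CA WT) and T-47D (PIK3CA H1047R) cells, 4,000/well. Signal normalised to background and DMSO controls as percent inhibition.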

[2] = system: phosphorylation of AKT on Ser473 as a readout of the PI3K pathway in SKBR3 (PIK3CA WT) cells; test: PI3K pathway activation assay, pAKT Ser473 HTRF, SKBR3 cells; type: cell-based; settings: Homo sapiens, SK-BR-3, 2 h, two hours of treatment
Protocol: The inhibitory activity of compounds was evaluated by measuring phosphorylation of AKT on Ser473 as a readout of the PI3K pathway using HTRF (CisBio catalog number: 64AKSPE). These studies were conducted in the T-47D (heterozygous PIK3CA H1047R) and SKBR3 (PIK3CA WT) cell lines. Cells were maintained in a 37° C. incubator at 5% CO2 in the following media: T-47D: RPMI 1640, ATCC© Modification (Gibco, A10491-01) supplemented with 10% v/v FBS (Gibco, 26140-079), 1% penicillin streptomycin (Gibco, 15140-122), and 7.4 ug/mL insulin (MilliporeSigma, I9278); SKBR3: McCoy's 5a (Modified) Medium (Gibco, 16600-082) supplemented with 10% v/v FBS (Gibco, 26140-079). Cells were seeded in 384-well plates at a density of 4,000 cells/well. Compounds dissolved in DMSO were added using a digital dispense (D300E, Tecan) 10-point serial dilution. After two hours of treatment, cells were lysed for thirty minutes and then incubated with detection reagents per HTRF kit material and manufacturer's instructions. Fluorescence signal was measured with a multimode plate reader (Envision 2105, Perkin Elmer). Fluorescent signal was normalized to background and DMSO controls to obtain percent inhibition/activity for each compound.

Structure (SMILES)	IC50 [1]	IC50 [2]
Cc1ccc(C(=O)O)c(NC(C)c2cc(C)cc3c(=O)n(C)c(N4Cc5ccccc5C4)nc23)c1 (centres unmarked) [Example 69, 2-((1-(2-(Isoindolin-2-yl)-3,6-dimethyl-4-oxo-3,4-dihydroquinazolin-8-yl)ethyl)amino)-4-methylbenzoic]	0.5 to 10 µM	> 10 µM
Cc1cc(C(C)Nc2ccccc2C(=O)O)c2nc(N3CCC4(CC4)C3)n(C)c(=O)c2c1 (centres unmarked) [Example 39, 2-[1-[2-(5-azaspiro[2.4]heptan-5-yl)-3,6-dimethyl-4-oxoquinazolin-8-yl]ethyl-amino]benzoic acid]	< 0.5 µM	> 10 µM
[2H]C([2H])([2H])n1c(N2CC3CC3C2)nc2c(C(C)Nc3ccccc3C(=O)O)cc(C)cc2c1=O (single isomer, unassigned) [Example 104, 2-((1-(2-(3-Azabicyclo[3.1.0]hexan-3-yl)-6-methyl-3-(methyl-d3)-4-oxo-3,4-dihydroquinazolin-8-yl)ethyl)amino)benzoic acid]	< 0.5 µM	> 10 µM
Cc1cc(C(C)Nc2cc(C#N)ccc2C(=O)O)c2nc(N3CC4CC4C3)n(C)c(=O)c2c1 (centres unmarked) [Example 23, 2-((1-(2-(3-azabicyclo[3.1.0]hexan-3-yl)-3,6-dimethyl-4-oxo-3,4-dihydro-quinazolin-8-yl)ethyl)amino)-4-cyanobenzoic acid]	0.5 to 10 µM	> 10 µM
Cc1cc(C(C)Nc2ccccc2C(=O)O)c2nc(N3Cc4cccnc4C3)n(C)c(=O)c2c1 (single isomer, unassigned) [Example 67, 2-((1-(2-(5,7-Dihydro-6H-pyrrolo[3,4-b]pyridin-6-yl)-3,6-dimethyl-4-oxo-3,4-dihydroquinazolin-8-yl)ethyl)amino)benzoic acid]	< 0.5 µM	> 10 µM
CC(Nc1ccccc1C(=O)O)c1cc(Cl)cc2c(=O)n(C)c(N3CC4CC4C3)nc12 (single isomer, unassigned) [Example 105, 2-((1-(2-(3-Azabicyclo[3.1.0]hexan-3-yl)-6-chloro-3-methyl-4-oxo-3,4-dihydroquinazolin-8-yl)ethyl)amino)benzoic acid]	< 0.5 µM	> 10 µM
COCCn1c(N2Cc3ccccc3C2)nc2c(C(C)Nc3ccccc3C(=O)O)cc(C)cc2c1=O (centres unmarked) [Example 19, 2-((1-(2-(isoindolin-2-yl)-3-(2-methoxyethyl)-6-methyl-4-oxo-3,4-dihydroquinazolin-8-yl)ethyl)amino)benzoic acid]	0.5 to 10 µM	> 10 µM
Cc1cc(C(C)Nc2ccccc2C(=O)O)c2nc(N3Cc4ccccc4C3)n(C(C)C)c(=O)c2c1 (single isomer, unassigned) [Example 27, 2-((1-(2-(isoindolin-2-yl)-3-isopropyl-6-methyl-4-oxo-3,4-dihydroquinazolin-8-yl)ethyl)amino)benzoic acid]	< 0.5 µM	> 10 µM
CSc1nc2c(C(C)Nc3ccccc3C(=O)O)cc(C)cc2c(=O)n1C (centres unmarked) [Example 43, 2-[1-(3,6-dimethyl-2-methylsulfanyl-4-oxoquinazolin-8-yl)ethylamino]benzoic acid]	0.5 to 10 µM	> 10 µM
CC(Nc1ccccc1C(=O)O)c1cc(F)cc2c(=O)n(C)c(N3CC4CC4C3)nc12 (centres unmarked) [Example 49, 2-((1-(2-(3-azabicyclo[3.1.0]hexan-3-yl)-6-fluoro-3-methyl-4-oxo-3,4-dihydro-quinazolin-8-yl)ethyl)amino)benzoic acid]	< 0.5 µM	> 10 µM
Cc1cc(C(C)Nc2ccccc2S(C)(=O)=O)c2nc(N3Cc4ccccc4C3)n(C)c(=O)c2c1 (centres unmarked) [Example 8, 2-(isoindolin-2-yl)-3,6-dimethyl-8-(1-((2-(methylsulfonyl)phenyl)amino)ethyl)quinazolin-4(3H)-one]	0.5 to 10 µM	> 10 µM
COc1ccc(NC(C)c2cc(C)cc3c(=O)n(C)c(N4CC5CC5C4)nc23)c(C(=O)O)n1 (centres unmarked) [Example 119, 3-[1-[2-(3-Azabicyclo[3.1.0]hexan-3-yl)-3,6-dimethyl-4-oxoquinazolin-8-yl]ethylamino]-6-methoxypyridine-2-carboxylic acid]	0.5 to 10 µM	> 10 µM
Cc1cc(C(C)Nc2cccnc2C(=O)O)c2nc(N3Cc4ccccc4C3)n(C)c(=O)c2c1 (centres unmarked) [Example 28, 3-((1-(2-(isoindolin-2-yl)-3,6-dimethyl-4-oxo-3,4-dihydroquinazolin-8-yl)ethyl)amino)picolinic acid]	0.5 to 10 µM	> 10 µM
Cc1cc(C(C)Nc2ccccc2C(=O)O)c2nc(N3Cc4ccccc4C3)n(C3CC(CO)(CO)C3)c(=O)c2c1 (centres unmarked) [Example 98, 2-((1-(3-(3,3-Bis(hydroxymethyl)cyclobutyl)-2-(isoindolin-2-yl)-6-methyl-4-oxo-3,4-dihydroquinazolin-8-yl)ethyl)amino)benzoic acid]	< 0.5 µM	> 10 µM
Cc1cc(C(C)Nc2ccc(C)nc2C(=O)O)c2nc(N3CC4CC4C3)n(C)c(=O)c2c1 (centres unmarked) [Example 120, 3-[1-[2-(3-Azabicyclo[3.1.0]hexan-3-yl)-3,6-dimethyl-4-oxoquinazolin-8-yl]ethylamino]-6-methylpyridine-2-carboxylic acid]	0.5 to 10 µM	> 10 µM
Cc1cc(C(C)Nc2ccccc2C(=O)O)c2nc(N3Cc4ccccc4C3)n(C)c(=O)c2c1 (centres unmarked) [Example 1, 2-((1-(2-(isoindolin-2-yl)-3,6-dimethyl-4-oxo-3,4-dihydroquinazolin-8-yl)ethyl)amino)benzoic acid]	< 0.5 µM	> 10 µM
